Test results from patent US20140378451A1, “Cannabinoid-2-Receptor Agonists” (ISIS INNOVATION LIMITED, priority 2011, published 2014).

Columns and labels:
[1] = biological target: T1, hCB2R (Homo sapiens, UniProt P34972); assay: cAMP assay on hCB2R clone 3D8.3 (transfected CHO-K1 cells); type: cell-based; settings: for IC50: cAMP, hCNR2 CHO-K1 3D8.3 clone, read-out: Assay 1 IC50
T1 construct: unnamed tag of the plasmid; expressed in transfected cells
Method: (§1) Compounds were evaluated for their CB2R agonist potency in the following assays:
Assay 1—cAMP Assay on hCB2R Clone 3D8.3:
Chinese hamster ovary cells (CHO)-K1 were transfected with hCB2R plasmid using Genejuice (Merck). After 48 h the cells were transferred into flasks in the presence of the antibiotic G418 and expanded (with continuous replenishment of the antibiotic). Two single-cell cloning rounds were then performed, followed by verification of the presence of the tag of the plasmid and confirming the receptor was functional in cAMP studies. For the screening of compounds: Briefly, hCNR2 CHO-K1 (3D8.3 clone) cells were plated in Optimem+1% FCS (30000 cells, 100 ul per well) in half-area 96-well plates (Corning 3885) and placed in an incubator 37° C. 5% CO2 overnight. Next day, the medium was aspirated and replaced with ‘antibody solution’ (22.5 ul) (provided concentrated, diluted 1 in 3 with ‘assay buffer’ provided). The freshly made compounds (at a ×4 final concentration) or solvent alone (1.2% DMSO) were added to the wells and incubated for 30 minutes in a 37° C. incubator 5% CO2. A mixture of: Lysis solution (38%), substrates (Emerald-II™ (10%) and Galacton-Star® (2%)) and enzyme donor-labeled cAMP (50%) was added to the wells and incubated in the dark for one hour at room temperature. 30 μl of detection reagent (enzyme acceptor, provided) was then added to the wells and incubated in the dark for 3 hours at room temperature. The luminescence was then read with a Perkin-Elmer luminometer.

[2] = biological target: T2, hCNR2 (CB2R) (Homo sapiens, UniProt P34972); assay: DiscoveRx cAMP Hunter Express GPCR assay (hCNR2 CHO-K1 cells); type: cell-based; settings: cAMP Hunter eXpress, hCNR2 CHO-K1 cells; read-out: Assay 2 IC50
T2 construct: host or cells: CHO-K1 (purchased recombinant cell line)
T2 sequence (P34972 whole entry): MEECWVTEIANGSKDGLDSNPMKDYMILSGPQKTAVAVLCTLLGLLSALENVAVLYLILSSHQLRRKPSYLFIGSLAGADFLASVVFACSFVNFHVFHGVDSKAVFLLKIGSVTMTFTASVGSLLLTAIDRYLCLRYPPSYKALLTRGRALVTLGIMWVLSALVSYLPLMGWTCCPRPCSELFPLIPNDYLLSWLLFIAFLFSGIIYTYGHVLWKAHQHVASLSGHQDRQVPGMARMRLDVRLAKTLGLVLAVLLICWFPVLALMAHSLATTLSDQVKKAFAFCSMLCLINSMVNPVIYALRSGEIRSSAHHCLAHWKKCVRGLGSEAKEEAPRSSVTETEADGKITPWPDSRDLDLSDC
Method: as §1
Assay 2—DiscoveRx cAMP Hunter Express GPCR Assay
The cAMP Hunter eXpress GPCR assay kit and cells used are from DiscoveRx Corporation (95-0040E2) using the manufacturer's protocol without the optional IBMX step. […] Briefly, hCNR2 CHO-K1 cells were plated in the provided medium (50 ul per well) in half-area 96-well plates (Corning 3885) and placed in an incubator 37° C. 5% CO2 overnight. Next day, the medium was aspirated and replaced with ‘antibody solution’ (22.5 ul) (provided concentrated, diluted 1 in 3 with ‘assay buffer’ provided). The freshly made compounds (at a ×4 final concentration) or solvent alone (1.2% DMSO) were added to the wells and incubated for 30 minutes in a 37° C. incubator 5% CO2. A mixture of lysis solution and two substrates (provided with the DiscoveRx kit) was added to the wells and incubated in the dark for one hour at room temperature. A detection reagent (provided) was then added to the wells and incubated in the dark for 3 hours at room temperature. The luminescence was then read with a Perkin-Elmer luminometer.

T1 sequence (P34972 whole entry): as above

| IC50 [1] [nM] | IC50 [2] [nM] | Assay 1 activity at 3 μM [1] [% activity at 3 μM] | Compound |
| --- | --- | --- | --- |
| 14 | 49 |  | N#Cc1ccccc1CSc1nnc2c3ccccc3n(C(=O)C3CCCC3)c2n1 [Example 22, 2′-(((5-(Cyclopentanecarbonyl)-5H-[1,2,4]triazino[5,6-b]indol-3-yl)thio)methyl)benzonitrile] |
| 12 | 32 |  | N#Cc1ccccc1CSc1nnc2c3ccccc3n(C(=O)C3CCCCC3)c2n1 [Example 18, 2′-(((5-(Cyclohexanecarbonyl)-5H-[1,2,4]triazino[5,6-b]indol-3-yl)thio)methyl)benzonitrile] |
| 1900 | 539 |  | O=[N+]([O-])c1cccc(F)c1CSc1nnc2c(n1)[nH]c1ccccc12 [Example 12, 3-((2′-Fluoro-6′-nitrobenzyl)thio)-5H-[1,2,4]triazino[5,6-b]indole] |
| 95 | 95 |  | CCCCSc1nnc2c(n1)[nH]c1ccccc12 [Example 28, 3-(butylthio)-5H-[1,2,4]triazino[5,6-b]indole] |
| 31 | 46 |  | N#Cc1ccccc1CSc1nnc2c3ccccc3n(C(=O)c3ccco3)c2n1 [Example 23, 2′-(((5-(Furan-2″-carbonyl)-5H-[1,2,4]triazino[5,6-b]indol-3-yl)thio)methyl)benzonitrile] |
|  | 215 |  | Cc1ccccc1CSc1nnc2c(n1)[nH]c1ccccc12 [Example 15, 3-((2′-Methylbenzyl)thio)-5H-[1,2,4]triazino[5,6-b]indole] |
| 270 |  |  | N#Cc1ccccc1CSc1nnc2c3ccccc3n(CC3CCCCC3)c2n1 [Example 36, 2′-(((5-(Cyclohexylmethyl)-5H-[1,2,4]triazino[5,6-b]indol-3-yl)thio)methyl)benzonitrile] |
| 32 | 57 |  | N#Cc1ccccc1CSc1nnc2c3ccccc3n(C(=O)c3ccc(F)cc3)c2n1 [Example 20, 2′-(((5-(4″-Fluorobenzoyl)-5H-[1,2,4]triazino[5,6-b]indol-3-yl)thio)methyl)benzonitrile] |
| 11 |  |  | c1ccc(-c2nn[nH]n2)c(CSc2nnc3c(n2)[nH]c2ccccc23)c1 [Example 47] |
| 2180 |  |  | O=C(O)c1ccccc1CSc1nnc2c(n1)[nH]c1ccccc12 [Example 46, 2′-(((5H-[1,2,4]Triazino[5,6-b]indol-3-yl)thio)methyl)benzoic] |
| ~600 |  |  | N#Cc1ccccc1CSc1nnc2c3ccccc3n(Cc3ccc(Cl)cc3)c2n1 [Example 5, 2′(((5-(4″-Chlorobenzyl)-5H-[1,2,4]triazino[5,6-b]indol-3-yl)thio)methyl)benzonitrile] |
| 16 |  |  | N#Cc1ccccc1CSc1nnc2c3c(Br)cccc3n(C(=O)C3CC3)c2n1 [Example 44, 2′-(((9-Bromo-5-(cyclopropanecarbonyl)-5H-[1,2,4]triazino[5,6-b]indol-3-yl)thio)methyl)benzonitrile] |
| 129 | 33 |  | O=[N+]([O-])c1ccccc1CSc1nnc2c(n1)[nH]c1ccccc12 [Example 1, 3-((2′-nitrobenzyl)thio)-5H-[1,2,4]triazino[5,6-b]indole] |
| 2620 |  |  | COc1ccc(-c2cccc3[nH]c4nc(SCc5ccccc5C#N)nnc4c23)cc1 [Example 49, 2″-(((9-(4′-Methoxyphenyl)-5H-[1,2,4]triazino[5,6-b]indol-3-yl)thio)methyl)benzonitrile] |
| 20 |  |  | N#Cc1ccccc1CSc1nnc2c3c(Br)cccc3n(CC3CC3)c2n1 [Example 43, 2′-(((9-Bromo-5-(cyclopropylmethyl)-5H-[1,2,4]triazino[5,6-b]indol-3-yl)thio)methyl)benzonitrile] |
| 3550 |  |  | N#Cc1ccccc1C[S+]([O-])c1nnc2c(n1)[nH]c1ccccc12 (stereo not shown) [Example 32, 2′-(((5H-[1,2,4]Triazino[5,6-b]indol-3-yl)sulfinyl)methyl)benzonitrile] |
| 160 | 112 |  | N#Cc1ccccc1CSc1nnc2c(n1)[nH]c1ccccc12 [Example 2, 3-((2′-Cyanobenzyl)thio)-5H-[1,2,4]triazino[5,6-b]indole] |

| IC50 [1] [nM] | IC50 [2] [nM] | Assay 1 activity at 3 μM [1] [% activity at 3 μM] | Compound |
| --- | --- | --- | --- |
| 45 | 42 |  | COC(=O)CCCC(=O)n1c2ccccc2c2nnc(SCc3ccccc3C#N)nc21 [Example 27, methyl 5″-(3-((2′-cyanobenzyl)thio)-5H-[1,2,4]triazino[5,6-b]indol-5-yl)-5″-oxopentanoate] |
| 45 |  |  | N#Cc1ccccc1CSc1nnc2c3ccccc3n(Cc3ccc(F)cc3)c2n1 [Example 37, 2′-(((5-(4″-Fluorobenzyl)-5H-[1,2,4]triazino[5,6-b]indol-3-yl)thio)methyl)benzonitrile] |
| 617 |  |  | O=[N+]([O-])c1ccc(CSc2nnc3c(n2)[nH]c2ccccc23)cc1 [Example 33, 3-((4′-Nitrobenzyl)thio)-5H-[1,2,4]triazino[5,6-b]indole] |
| 231 |  |  | N#Cc1ccccc1CSc1nnc2c(n1)[nH]c1cccc(C3CC3)c12 [Example 51, 2″-(((9-Cyclopropyl-5H-[1,2,4]triazino[5,6-b]indol-3-yl)thio)methyl)benzonitrile] |
|  |  | ~40 | O=[N+]([O-])c1ccccc1CSc1nnc2c3ccccc3n(Cc3ccccc3)c2n1 [Example 14, 5-Benzyl-3-((2′-nitrobenzyl)thio)-5H-[1,2,4]triazino[5,6-b]indole] |
| 76 |  |  | N#Cc1ccccc1CSc1nnc2c3ccccc3n(S(=O)(=O)c3ccccc3)c2n1 [Example 34, 2′-(((5-(Phenylsulfonyl)-5H-[1,2,4]triazino[5,6-b]indol-3-yl)thio)methyl)benzonitrile] |
|  |  | ~60 | COc1ccc(C(=O)n2c3ccccc3c3nnc(SCc4ccccc4C#N)nc32)cc1OC [Example 17] |
| 144 |  |  | N#Cc1ccccc1CSc1nnc2c3ccccc3n(CC3CC3)c2n1 [Example 41, 2′-((5-(Cyclopropylmethyl)-5H-[1,2,4]triazino[5,6-b]indol-3-ylthio)methyl)benzonitrile] |
| 1760 |  |  | N#Cc1ccccc1CSc1nnc2c(n1)[nH]c1cccc(-c3ccsc3)c12 [Example 50, 2″-(((9-(Thiophen-3′-yl)-5H-[1,2,4]triazino[5,6-b]indol-3-yl)thio)methyl)benzonitrile] |
| 674 |  |  | CCn1c2ccccc2c2nnc(SCc3ccccc3C#N)nc21 [Example 30, 2′-(((5-Ethyl-5H-[1,2,4]triazino[5,6-b]indol-3-yl)thio)methyl)benzonitrile] |
| 106 |  |  | CCCCn1c2ccccc2c2nnc(SCc3ccccc3C#N)nc21 [Example 31, 2′-(((5-Butyl-5H-[1,2,4]triazino[5,6-b]indol-3-yl)thio)methyl)benzonitrile] |
| 4300 |  |  | Cc1ccccc1-c1cccc2[nH]c3nc(SCc4ccccc4C#N)nnc3c12 [Example 48, 2″-(((9-(o-Tolyl)-5H-[1,2,4]triazino[5,6-b]indol-3-yl)thio)methyl)benzonitrile] |
| 72 |  |  | N#Cc1ccccc1CSc1nnc2c3ccccc3n(C(=O)[C@@H]3C[C@H]3c3ccccc3)c2n1 (stereo in doubt) [Example 38, 2′-((5-(2″-Phenylcyclopropanecarbonyl)-5H-[1,2,4]triazino[5,6-b]indol-3-ylthio)methyl)benzonitrile] |
| > 3000 |  |  | CC(=O)n1c2ccccc2c2nnc(SCc3ccccc3C#N)nc21 [Example 29, 2′(((5-Acetyl-5H-[1,2,4]triazino[5,6-b]indol-3-yl)thio)methyl)benzonitrile] |
| 549 |  |  | N#Cc1ccccc1CSc1nnc2c3ccccc3n(CC(=O)C3CC3)c2n1 [Example 39, 2′-((5-(2-Cyclopropyl-2-oxoethyl)-5H-[1,2,4]triazino[5,6-b]indol-3-ylthio)methyl)benzonitrile] |
| 181 |  |  | N#Cc1ccccc1CSc1nnc2c3ccccc3n(C(=O)C3CC3)c2n1 [Example 42, 2′-(((5-(Cyclopropanecarbonyl)-5H-[1,2,4]triazino[5,6-b]indole-3-yl)thio)methyl)benzonitrile] |
| 628 |  |  | C[C@@H]1C[C@H]1C(=O)n1c2ccccc2c2nnc(SCc3ccccc3C#N)nc21 (relative stereo) [Example 40, 2′-((5-(2″-Methylcyclopropanecarbonyl)-5H-[1,2,4]triazino[5,6-b]indol-3-ylthio)methyl)benzonitrile] |
